Measured values: patent US3968101A, “8-Substituted cyclic nucleotides by free radical alkylation and acylation” (ICN Pharmaceuticals, Inc., priority 1974, dated 1976)
pIC50: −log10 of the molar value. Structures can show the parent of a compound that is named as a salt.

How the values were obtained:
[1] = tested on: cAMP-dependent protein kinase; test: Activation of cAMP-dependent protein kinase isolated from beef brain; format: biochemical, bovine; conditions: for Protein Kinase, Ka ' Bovine: ratio of Ka of cAMP to Ka of test compound, bovine brain cAMP-dependent kinase; for activation of the cAMP-dependent protein kinase (in words): bovine brain kinase
From the text: The new 8-substituted purine cyclic nucleotides were examined for their ability to stimulate both a cAMP-dependent protein kinase isolated from beef brain and a cGMP-dependent protein kinase isolated from lobster tail (see Table II).
a Ka ' = The ratio of Ka of the dependent cyclic nucleotide (cAMP for bovine brain and cGMP for lobster tail) to the Ka of the test compound.

[2] = tested on: cGMP-dependent protein kinase; test: Activation of cGMP-dependent protein kinase isolated from lobster tail; format: biochemical; conditions: for Protein Kinase, Ka ' Lobster: ratio of Ka of cGMP to Ka of test compound, lobster tail cGMP-dependent kinase; for ability to activate the cGMP-dependent protein kinase (in words): lobster tail kinase; for specificity between cGMP-dependent and cAMP-dependent protein kinase (in words): lobster tail cGMP-dependent versus bovine brain cAMP-dependent kinase
From the text: The new 8-substituted purine cyclic nucleotides were examined for their ability to stimulate both a cAMP-dependent protein kinase isolated from beef brain and a cGMP-dependent protein kinase isolated from lobster tail (see Table II). […]. Acad. Sci. USA 64, 1349, Kuo et al, 1971, J. Biol. Chem. 246,7159) to be mediated by its activation of a protein kinase.
The Ka of cAMP for the cAMP-dependent protein kinase is about the same (see footnote a, Table II) as the Ka of cGMP for the cGMP-dependent protein kinase. Comparison of the Ka ' values (the ratio of Ka of the dependent cyclic nucleotide to the Ka of the test compound) is, therefore, an accurate guide to the type of kinase stimulation seen at a given cyclic nucleotide concentration.
a Ka ' = The ratio of Ka of the dependent cyclic nucleotide (cAMP for bovine brain and cGMP for lobster tail) to the Ka of the test compound. […]

[3] = tested on: cyclic nucleotide phosphodiesterase; test: Susceptibility to hydrolysis by rabbit kidney cyclic nucleotide phosphodiesterase; format: biochemical; conditions: rabbit kidney enzyme preparation; times the rate of cAMP
From the text: All compounds were examined for their susceptibility to hydrolysis by cyclic nucleotide phosphodiesterase. Both cGMP and cIMP were hydrolyzed at approximately one-half the rate of cAMP by a rabbit kidney enzyme preparation generally prepared in the manner described below for rabbit lung enzyme. The new 8-substituted derivatives were not substrates (rate of hydrolysis<0.05 that of the rate of cAMP hydrolysis) within the limits of detection of our assay, with the sole exception of 8-(1-hydroxybutyl)-cGMP (12), which was hydrolyzed at a rate 0.18 times the rate of hydrolysis of cAMP. This finding is in agreement with the general conclusion that 8-substitution of a purine 3',5'-cyclic ribonucleotide greatly reduces the ability of the resulting derivative to serve as a substrate for cyclic nucleotide phosphodiesterase.

[4] = target: cyclic nucleotide phosphodiesterase; test: Inhibition of cAMP hydrolysis by rabbit lung cyclic nucleotide phosphodiesterase; format: biochemical; conditions: rabbit lung enzyme; 50% inhibition of cleavage of cAMP, cAMP = 1.6 × 10^-7 M; read-out: Phosphodiesterase Inhibition, I50 Lung
From the text: (§1) Homogenates of rabbit lung and beef heart are made in sucrose-Tris-magnesium buffer and are subjected to centrifugation at low speed to remove nuclei and cell debris. […] The precipitation which forms at 0-50% saturation is collected by centrifugation at 20,000 × g, dissolved in Tris-magnesium buffer, and dialyzed overnight against the same buffer.

[5] = target: cyclic nucleotide phosphodiesterase; test: Inhibition of cAMP hydrolysis by beef heart cyclic nucleotide phosphodiesterase; format: biochemical; conditions: beef heart enzyme; 50% inhibition of cleavage of cAMP, cAMP = 1.6 × 10^-7 M; read-out: Phosphodiesterase Inhibition, I50 Heart
From the text: as §1

SMILES	Protein Kinase, Ka ' Bovine [1]	Protein Kinase, Ka ' Lobster [2]	rate of hydrolysis relative to the rate of cAMP hydrolysis [3]	pIC50 [4]	pIC50 [5]	ability to activate the cGMP-dependent protein kinase (in words) [2]	activation of the cAMP-dependent protein kinase (in words) [1]	specificity between cGMP-dependent and cAMP-dependent protein kinase (in words) [2]
Nc1nc2c(ncn2[C@@H]2O[C@@H]3COP(=O)(O)O[C@H]3[C@H]2O)c(=O)[nH]1 [Compound 1, guanosine 3',5'-cyclic phosphate, reference compound]	0.023	1.0	approximately one-half					
CC(C)c1nc2c(=O)[nH]c(N)nc2n1[C@@H]1O[C@@H]2COP(=O)(O)O[C@H]2[C@H]1O [Compound 3, 8-Isopropylguanosine 3',5'-Cyclic Phosphate]	< 0.001	0.70		3.48	4.00			
Nc1nc2c(nc(Cc3ccccc3)n2[C@@H]2O[C@@H]3COP(=O)(O)O[C@H]3[C@H]2O)c(=O)[nH]1 [Compound 4, 8-Benzylguanosine 3',5'-Cyclic Phosphate]	< 0.001	0.10		3.89	3.85			
CCCC(=O)c1nc2c(=O)[nH]c(N)nc2n1[C@@H]1O[C@@H]2COP(=O)(O)O[C@H]2[C@H]1O [Compound 7, 8-Butyrylguanosine 3',,5' -cyclic phosphate]	0.064	0.20		4.15	4.05			
CC(C)C(=O)c1nc2c(=O)[nH]c(N)nc2n1[C@@H]1O[C@@H]2COP(=O)(O)O[C@H]2[C@H]1O [Compound 8, 8-Isobutyrylguanosine 3',5'-Cyclic Phosphate Ammonium Salt]	< 0.01	0.13			4.96			
Nc1nc2c(nc(C(=O)c3ccccc3)n2[C@@H]2O[C@@H]3COP(=O)(O)O[C@H]3[C@H]2O)c(=O)[nH]1 [Compound 9, 8-Benzoylguanosine 3',5'-cyclic phosphate]	< 0.005	0.68			4.30			
CC(=NNC(N)=S)c1nc2c(=O)[nH]c(N)nc2n1[C@@H]1O[C@@H]2COP(=O)(O)O[C@H]2[C@H]1O [Compound 15, 8-Acetylguanosine 3',5'-Cyclic Phosphate Thiosemicarbazone]	< 0.005	0.052		4.59	4.30			
CC(=NNC(N)=O)c1nc2c(=O)[nH]c(N)nc2n1[C@@H]1O[C@@H]2COP(=O)(O)O[C@H]2[C@H]1O [Compound 16, 8-Acetylguanosine 3',5'-Cyclic Phosphate Semicarbazone]	< 0.005	0.031		3.70	3.90			
CC(=NNc1ccccc1)c1nc2c(=O)[nH]c(N)nc2n1[C@@H]1O[C@@H]2COP(=O)(O)O[C@H]2[C@H]1O [Compound 18, 8-Acetylguanosine 3',5'-Cyclic Phosphate Phenylhydrazone]	< 0.005	0.44		2.70	4.00			
O=c1[nH]cnc2c1ncn2[C@@H]1O[C@@H]2COP(=O)(O)O[C@H]2[C@H]1O [Compound 19, Inosine 3',5'-cyclic phosphate, reference compound]	0.59	0.085	approximately one-half	4.00	5.41			greater activation of the cAMP-dependent kinase
Cn1c(=O)c2[nH]cnc2n(C)c1=O [theophylline, reference compound]				3.70	4.00			

More lines, main results first:

Protein Kinase, Ka ' Bovine [1]	Protein Kinase, Ka ' Lobster [2]	rate of hydrolysis relative to the rate of cAMP hydrolysis [3]	pIC50 [4]	pIC50 [5]	ability to activate the cGMP-dependent protein kinase (in words) [2]	activation of the cAMP-dependent protein kinase (in words) [1]	SMILES	specificity between cGMP-dependent and cAMP-dependent protein kinase (in words) [2]
0.015	0.066		3.40	3.70			Cc1nc2c(=O)[nH]c(N)nc2n1[C@@H]1O[C@@H]2COP(=O)(O)O[C@H]2[C@H]1O [Compound 2, 8-Methylguanosine 3',5'-Cyclic Phosphate]	
< 0.001	0.16		4.15	4.00			CC(C)(C)Cc1nc2c(=O)[nH]c(N)nc2n1[C@@H]1O[C@@H]2COP(=O)(O)O[C@H]2[C@H]1O [Compound 5, 8-Neopentylguanosine 3',5'-Cyclic Phosphate]	
< 0.001	0.56		4.15	3.77			CC(=O)c1nc2c(=O)[nH]c(N)nc2n1[C@@H]1O[C@@H]2COP(=O)(O)O[C@H]2[C@H]1O [Compound 6, 8-Acetylguanosine 3',5' -Cyclic Phosphate]	
< 0.001	1.5		3.40	4.00	superior to cGMP		NC(=O)c1nc2c(=O)[nH]c(N)nc2n1[C@@H]1O[C@@H]2COP(=O)(O)O[C@H]2[C@H]1O [Compound 10, 8-Carbamoylguanosine 3',5'-Cyclic Phosphate]	
< 0.01	1.8		3.40	3.77	superior to cGMP		CC(O)c1nc2c(=O)[nH]c(N)nc2n1[C@@H]1O[C@@H]2COP(=O)(O)O[C@H]2[C@H]1O (some centres unmarked) [Compound 11, 8-(1-Hydroxyethyl)guanosine 3',5'-Cyclic Phosphate]	
< 0.001	0.62	0.18	3.88	4.54			CCCC(O)c1nc2c(=O)[nH]c(N)nc2n1[C@@H]1O[C@@H]2COP(=O)(O)O[C@H]2[C@H]1O (some centres unmarked) [Compound 12, 8-(1-Hydroxybutyl)guanosine 3',5'-Cyclic Phosphate]	
< 0.001	0.72		3.74	4.42			CC(C)C(O)c1nc2c(=O)[nH]c(N)nc2n1[C@@H]1O[C@@H]2COP(=O)(O)O[C@H]2[C@H]1O (some centres unmarked) [Compound 13, 8-(1-Hydroxy-2-methylpropyl)guanosine 3',5'-Cyclic Phosphate]	
< 0.005	2.3		3.85	< 3.52	superior to cGMP		Nc1nc2c(nc(C(O)c3ccccc3)n2[C@@H]2O[C@@H]3COP(=O)(O)O[C@H]3[C@H]2O)c(=O)[nH]1 (stereo partly drawn) [Compound 14, 8-(α-Hydroxybenzyl)guanosine 3',5'-Cyclic Phosphate]	
< 0.01	0.11		3.82	4.40			CC(=NNC(=O)Nc1ccccc1)c1nc2c(=O)[nH]c(N)nc2n1[C@@H]1O[C@@H]2COP(=O)(O)O[C@H]2[C@H]1O [Compound 17, 8-Acetylguanosine 3',5'-Cyclic Phosphate 4-Phenylsemicarbazone]	
0.022	0.0041		2.70	3.00	slight activation	slight activation	CC(=O)c1nc2c(=O)[nH]cnc2n1[C@@H]1O[C@@H]2COP(=O)(O)O[C@H]2[C@H]1O [Compound 20, 8-Acetylinosine 3',5'-Cyclic Phosphate]	slightly greater specificity for the cAMP-dependent enzyme
0.070	0.011		3.40	4.15	slight activation	slight activation	O=C(c1ccccc1)c1nc2c(=O)[nH]cnc2n1[C@@H]1O[C@@H]2COP(=O)(O)O[C@H]2[C@H]1O [Compound 21, 8-Benzoylinosine 3',5'-Cyclic Phosphate]	slightly greater specificity for the cAMP-dependent enzyme
